Converted amounts (≈) assume the structure as drawn. “And” between values parts separate entries of the source, which are not always exact repeats. Identical values can stand only once.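 1) Cells in 96-well plates. 2) Compound, 48 h, 5 concentrations. 3) Linear interpolation between surrounding doses. 4) Unreached endpoint = highest concentration. GI50 marks 50% less growth. TGI is the concentration that stops growth completely.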 The source made the active and inactive calls. Cut-off read from the data, not from the text of the source: active = GI50 below about 0.43 µM; inactive = the rest.
How the values were obtained:
Experiment in all cases: NCI-60 cell line screen, 48 h
786-0 renal = system: 786-0 renal
A498 renal = system: A498 renal
ACHN renal = system: ACHN renal
BT-549 breast = system: BT-549 breast
CAKI-1 renal = system: CAKI-1 renal
CCRF-CEM leukemia = system: CCRF-CEM leukemia
COLO 205 colon = system: COLO 205 colon
DLD-1 colon = system: DLD-1 colon
DMS 114 small cell lung = system: DMS 114 small cell lung
DMS 273 small cell lung = system: DMS 273 small cell lung
DU-145 prostate = system: DU-145 prostate
EKVX NSCLC = system: EKVX NSCLC
HCC-2998 colon = system: HCC-2998 colon
HCT-15 colon = system: HCT-15 colon
HL-60(TB) leukemia = system: HL-60(TB) leukemia
HOP-18 NSCLC = system: HOP-18 NSCLC
HOP-62 NSCLC = system: HOP-62 NSCLC
HOP-92 NSCLC = system: HOP-92 NSCLC
HS 578T breast = system: HS 578T breast
HT29 colon = system: HT29 colon
IGROV1 ovarian = system: IGROV1 ovarian
K-562 leukemia = system: K-562 leukemia
KM12 colon = system: KM12 colon
KM20L2 colon = system: KM20L2 colon
LOX IMVI melanoma = system: LOX IMVI melanoma
LXFL 529 NSCLC = system: LXFL 529 NSCLC
M14 melanoma = system: M14 melanoma
M19-MEL melanoma = system: M19-MEL melanoma
MALME-3M melanoma = system: MALME-3M melanoma
MCF7 breast = system: MCF7 breast
MDA-MB-231 breast = system: MDA-MB-231 breast
MDA-MB-435 = system: MDA-MB-435
MDA-N = system: MDA-N
MOLT-4 leukemia = system: MOLT-4 leukemia
NCI-H226 lung = system: NCI-H226 lung
NCI-H23 lung = system: NCI-H23 lung
NCI-H460 lung = system: NCI-H460 lung
NCI-H522 lung = system: NCI-H522 lung
OVCAR-3 ovarian = system: OVCAR-3 ovarian
OVCAR-4 ovarian = system: OVCAR-4 ovarian
OVCAR-5 ovarian = system: OVCAR-5 ovarian
OVCAR-8 ovarian = system: OVCAR-8 ovarian
PC-3 prostate = system: PC-3 prostate
RPMI-8226 leukemia = system: RPMI-8226 leukemia
RXF 393 renal = system: RXF 393 renal
SF-268 CNS = system: SF-268 CNS
SF-295 CNS = system: SF-295 CNS
SF-539 CNS = system: SF-539 CNS
SK-MEL-2 melanoma = system: SK-MEL-2 melanoma
SK-MEL-28 melanoma = system: SK-MEL-28 melanoma
SK-MEL-5 melanoma = system: SK-MEL-5 melanoma
SN12C renal = system: SN12C renal
SNB-19 CNS = system: SNB-19 CNS
SNB-78 CNS = system: SNB-78 CNS
SR leukemia = system: SR leukemia
SW-620 colon = system: SW-620 colon
T-47D breast = system: T-47D breast
TK-10 renal = system: TK-10 renal
U251 CNS = system: U251 CNS
UACC-257 melanoma = system: UACC-257 melanoma
UACC-62 melanoma = system: UACC-62 melanoma
UO-31 renal = system: UO-31 renal
A549 NSCLC = system: A549 NSCLC
HCT-116 colon = system: HCT-116 colon
SNB-75 CNS = system: SNB-75 CNS

COc1c(O)c2c(c3cc(C(=O)N4CCc5c4c(O)c(OC)c4[nH]c(C(=O)N6CC7CC78C6=CC(=O)c6[nH]cc(C)c68)cc54)[nH]c13)CCN2C(N)=O (configuration not stated)
GI50 (786-0 renal): 0.0293 µM
TGI (A498 renal): 6.94 nM and 247 nM and 0.0354 µg/mL
TGI (ACHN renal): 0.0142 µM
TGI (BT-549 breast): 5.01 µM
TGI (CAKI-1 renal): 5.31 nM and > 100 µM and 0.00582 µg/mL
GI50 (CCRF-CEM leukemia): 0.00439 µg/mL (≈ 0.00624 µM)
TGI (CCRF-CEM leukemia): 963 nM and 0.0344 µg/mL
TGI (COLO 205 colon): 3.83 nM and 5.18 µM and 0.00504 µg/mL
GI50 (DLD-1 colon): 0.00341 µg/mL (≈ 0.00485 µM)
GI50 (DMS 114 small cell lung): 0.00276 µg/mL (≈ 0.00392 µM)
TGI (DMS 114 small cell lung): 15.1 nM and 0.0121 µg/mL
GI50 (DMS 273 small cell lung): 0.00198 µg/mL (≈ 0.00282 µM)
TGI (DMS 273 small cell lung): 7.18 nM and 0.0106 µg/mL
TGI (DU-145 prostate): > 100 µM
GI50 (EKVX NSCLC): 0.00694 µg/mL (≈ 0.00986 µM)
TGI (EKVX NSCLC): > 100 µM and 0.0904 µg/mL
GI50 (HCC-2998 colon): 0.173 µM
TGI (HCC-2998 colon): 0.174 µM and 1.02 µM
GI50 (HCT-15 colon): 0.157 µM
GI50 (HL-60(TB) leukemia): 0.007 µg/mL (≈ 0.00995 µM)
TGI (HL-60(TB) leukemia): 0.0439 µg/mL
GI50 (HOP-18 NSCLC): 0.0126 µM
TGI (HOP-18 NSCLC): 0.0856 µM
outcome (HOP-18 NSCLC): inactive
GI50 (HOP-62 NSCLC): 2.51 nM and 0.0165 µg/mL
TGI (HOP-62 NSCLC): 14.6 nM and 0.0745 µg/mL
GI50 (HOP-92 NSCLC): 0.0081 µg/mL (≈ 0.0115 µM)
TGI (HOP-92 NSCLC): 28.8 nM and 0.0401 µg/mL
TGI (HS 578T breast): 3.41 µM
GI50 (HT29 colon): 0.00254 µM
GI50 (IGROV1 ovarian): 10.8 µM
TGI (IGROV1 ovarian): > 100 µM
TGI (K-562 leukemia): 21.8 µM and 0.0594 µg/mL
TGI (KM12 colon): 9.37 nM and 929 nM and 0.0348 µg/mL
TGI (KM20L2 colon): 0.0181 µM
outcome (KM20L2 colon): inactive
TGI (LOX IMVI melanoma): 2.61 nM and 287 nM and 0.00412 µg/mL
TGI (LXFL 529 NSCLC): 0.0329 µM
outcome (LXFL 529 NSCLC): inactive
GI50 (M14 melanoma): 0.172 µM
GI50 (M19-MEL melanoma): 0.0165 µg/mL (≈ 0.0235 µM)
TGI (M19-MEL melanoma): 14.8 nM and 0.041 µg/mL
TGI (MALME-3M melanoma): 5.23 nM and 1.02 µM and 0.00419 µg/mL
TGI (MCF7 breast): 0.397 µM
TGI (MDA-MB-231 breast): > 100 µM
TGI (MDA-MB-435): 0.783 µM
TGI (MDA-N): 22.3 µM
GI50 (MOLT-4 leukemia): 0.00642 µg/mL (≈ 0.00912 µM)
TGI (MOLT-4 leukemia): 456 nM and 0.0737 µg/mL
TGI (NCI-H226 lung): 1.47 nM and 276 nM and 0.0163 µg/mL
TGI (NCI-H23 lung): 0.00242 µM
TGI (NCI-H460 lung): 1.83 nM and 137 nM and 0.00377 µg/mL
GI50 (NCI-H522 lung): 0.0168 µg/mL (≈ 0.0239 µM)
TGI (NCI-H522 lung): 48.3 nM and 0.0372 µg/mL
TGI (OVCAR-3 ovarian): 48.6 nM and > 100 µM and 0.0456 µg/mL
GI50 (OVCAR-4 ovarian): 420 nM and 0.0198 µg/mL
TGI (OVCAR-4 ovarian): 2.91 µM and 0.0729 µg/mL
GI50 (OVCAR-5 ovarian): 0.0152 µg/mL (≈ 0.0216 µM)
TGI (OVCAR-5 ovarian): 0.0519 µg/mL
TGI (OVCAR-8 ovarian): 0.00265 µM
TGI (PC-3 prostate): 10 µM
TGI (RPMI-8226 leukemia): 313 nM and 11.9 µM and 0.159 µg/mL
GI50 (RXF 393 renal): 0.0282 µg/mL (≈ 0.0401 µM)
TGI (RXF 393 renal): 447 nM and 0.0456 µg/mL
TGI (SF-268 CNS): 47.4 nM and > 100 µM and 0.00521 µg/mL
GI50 (SF-295 CNS): 0.00174 µg/mL (≈ 0.00247 µM)
TGI (SF-295 CNS): 4.8 nM and 0.00618 µg/mL
TGI (SF-539 CNS): 12.1 nM and 897 nM and 0.007 µg/mL
GI50 (SK-MEL-2 melanoma): 0.0187 µg/mL (≈ 0.0266 µM)
TGI (SK-MEL-2 melanoma): 0.0349 µg/mL
GI50 (SK-MEL-28 melanoma): 0.354 µM
TGI (SK-MEL-5 melanoma): 27.9 nM and 400 nM and 0.00964 µg/mL
TGI (SN12C renal): 5.75 nM and 3.41 µM and 0.103 µg/mL
TGI (SNB-19 CNS): 76.8 nM and 3.69 µM and 0.185 µg/mL
GI50 (SNB-78 CNS): 0.0117 µg/mL (≈ 0.0166 µM)
TGI (SNB-78 CNS): 0.0534 µg/mL
TGI (SR leukemia): > 100 µM and 0.0804 µg/mL
TGI (SW-620 colon): 3.46 nM and 456 nM and 0.0038 µg/mL
TGI (T-47D breast): 40 µM
GI50 (TK-10 renal): 0.0259 µg/mL (≈ 0.0368 µM)
TGI (TK-10 renal): 222 nM and 0.0678 µg/mL
TGI (U251 CNS): 2.66 nM and 305 nM and 0.00324 µg/mL
GI50 (UACC-257 melanoma): 1.34 µM
TGI (UACC-62 melanoma): 5.3 nM and 688 nM and 0.00323 µg/mL
GI50 (UO-31 renal): 0.223 µM

Cc1cc(=O)[nH]c(NN2C(Cl)C(=O)C2c2ccco2)n1 (configuration not stated)
TGI (A549 NSCLC): > 100 µM
TGI (ACHN renal): > 100 µM
TGI (CCRF-CEM leukemia): 45.6 µM
TGI (COLO 205 colon): > 100 µM
TGI (DMS 114 small cell lung): > 100 µM
TGI (DMS 273 small cell lung): > 100 µM
TGI (EKVX NSCLC): > 100 µM
TGI (HCC-2998 colon): > 100 µM
TGI (HCT-116 colon): > 100 µM
TGI (HCT-15 colon): > 100 µM
TGI (HL-60(TB) leukemia): 39.3 µM
TGI (HOP-18 NSCLC): 58.8 µM
TGI (HOP-62 NSCLC): > 100 µM
TGI (HOP-92 NSCLC): 69.8 µM
TGI (HT29 colon): > 100 µM
TGI (IGROV1 ovarian): > 100 µM
TGI (K-562 leukemia): > 100 µM
TGI (KM12 colon): > 100 µM
TGI (KM20L2 colon): > 100 µM
TGI (LOX IMVI melanoma): > 100 µM
TGI (LXFL 529 NSCLC): > 100 µM
TGI (M14 melanoma): > 100 µM
TGI (M19-MEL melanoma): > 100 µM
TGI (MOLT-4 leukemia): > 100 µM
TGI (NCI-H23 lung): > 100 µM
TGI (NCI-H460 lung): > 100 µM
TGI (OVCAR-3 ovarian): 79.4 µM
TGI (OVCAR-4 ovarian): > 100 µM
TGI (OVCAR-5 ovarian): > 100 µM
TGI (OVCAR-8 ovarian): > 100 µM
TGI (RPMI-8226 leukemia): 38.3 µM
TGI (RXF 393 renal): > 100 µM
TGI (SF-268 CNS): > 100 µM
TGI (SF-539 CNS): 85.9 µM
TGI (SK-MEL-2 melanoma): 99.7 µM
TGI (SK-MEL-5 melanoma): > 100 µM
TGI (SN12C renal): 77 µM
TGI (SNB-19 CNS): > 100 µM
TGI (SNB-75 CNS): 68 µM
TGI (SNB-78 CNS): > 100 µM
TGI (SR leukemia): > 100 µM
TGI (SW-620 colon): > 100 µM
TGI (TK-10 renal): > 100 µM
TGI (U251 CNS): > 100 µM
TGI (UACC-257 melanoma): > 100 µM
TGI (UACC-62 melanoma): 63.6 µM
TGI (UO-31 renal): > 100 µM

Reference: PubChem BioAssay (NCI)
